In this test the test system is β-catenin. Nature of the test: β-catenin protein levels in cancer cell lines. The test is classed as cell-based. The conditions noted are these: in vitro within cancer cell lines. The source says: Understanding the clinical relevance of the cancer stemness markers and identifying their predictive response to the Compound of the Invention is used herein to assist clinical development by selecting patients that will most likely to derive clinical benefit. In some embodiments, the methods provided herein use one or more well-known cancer stemness marker(s), such as, for example, the expression of p-STAT3 and/or other cancer stem cell related proteins such as β-catenin and NANOG. All these proteins can be easily detected using any of a variety of art-recognized techniques. In some embodiments, the cancer sternness marker is detected with immunohistochemistry with antibodies. Using the archival tissue samples collected from the phase I trial with the Compound of the Invention, the patient response to the Compound of the Invention was analyzed based on biomarker status. […] A significant improvement in survival was detected for patients with nuclear β-Catenin localization compared with patients having β-catenin localized to the cell membrane, HR=0.043, p value <0.001. As further evidence, in an in vitro study screening a panel of cancer cells, the cell lines with nuclear β-Catenin show a lower IC50 for the Compound of the Invention. […] Thus, STAT3 activation is involved in nuclear β-catenin regulation. […]

From patent publication US10543189B2, “2-acetylnaphtho[2,3-b]furan -4,9-dione for use on treating cancer” (Boston Biomedical, Inc., priority 2013, dated 2020) come the findings set out here.

In the case of `CC(=O)c1cc2c(o1)C(=O)c1ccccc1C2=O` [Compound 1, 2-acetylnaphtho[2,3-b]furan-4,9-dione], the β-catenin protein levels entry is “reduced”.
